Source: patent publication US9822130B2, “Triazolo-pyrazinyl derivatives useful as soluble guanylate cyclase activators” (Merck Sharp & Dohme Corp., priority 2014, dated 2017)

Assays:
[1] = IV Cassette PK Assay in rats; type: in vivo; settings: rat, male Wistar-Han rats, plasma, LC-MS/MS, read-out: Cassette PK T1/2 (converted)
Method: The results were obtained using the following the procedure:
Adult male Wistar-Han rats were fasted overnight and administered a cassette IV dose of mixture of several compounds via a previously implanted catheter in the femoral vein. Animals were allowed access to food 4 h post dose. Blood samples were collected into EDTA-containing tubes at the following time points: 0.03, 0.13, 0.25, 0.5, 1, 2, 4, 8 h post-dose. Blood samples were stored on ice until plasma was harvested by centrifugation. Plasma was transferred to a 96-well plate and stored at −20° C. until analysis. Concentrations of each compound in rat plasma were determined by LC-MS/MS following protein precipitation.

[2] = target: T1, sGC α1/β1 heterodimer stably expressed in CHO-K1 cell line (CHO-K1/sGC) (Homo sapiens, UniProt Q02108+Q02153); assay: Cell-based sGC Functional Assay (CASA Assay), cGMP generation; settings: CHO-K1/sGC cells, 1 hr at 37° C., cGMP by HTRF, 4P fit; presence or absence of 1 μM DETA-NO not given; read-out: IP (nM) (inflection point)
T1 construct: expressed in transfected cells
T1 sequence (Q02108 1-690): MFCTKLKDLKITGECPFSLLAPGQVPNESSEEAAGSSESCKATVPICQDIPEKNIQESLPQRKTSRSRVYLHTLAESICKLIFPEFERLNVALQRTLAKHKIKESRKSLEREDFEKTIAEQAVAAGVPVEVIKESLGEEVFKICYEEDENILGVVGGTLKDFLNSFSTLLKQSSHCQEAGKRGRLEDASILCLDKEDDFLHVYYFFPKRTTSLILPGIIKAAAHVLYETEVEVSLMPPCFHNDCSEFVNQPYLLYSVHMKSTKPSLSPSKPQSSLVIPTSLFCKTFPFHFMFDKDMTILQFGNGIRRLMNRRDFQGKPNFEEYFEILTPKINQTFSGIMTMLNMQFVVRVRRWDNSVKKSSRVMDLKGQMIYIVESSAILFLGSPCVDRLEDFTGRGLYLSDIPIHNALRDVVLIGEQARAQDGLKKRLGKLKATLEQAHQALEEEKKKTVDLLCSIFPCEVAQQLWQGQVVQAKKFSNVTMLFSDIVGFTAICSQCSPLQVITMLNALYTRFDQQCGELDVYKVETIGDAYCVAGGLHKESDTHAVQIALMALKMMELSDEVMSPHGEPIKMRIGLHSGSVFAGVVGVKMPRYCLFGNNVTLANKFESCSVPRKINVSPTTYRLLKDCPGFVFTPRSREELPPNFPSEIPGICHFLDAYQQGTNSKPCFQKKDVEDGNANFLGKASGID
T1 sequence (Q02153 1-619): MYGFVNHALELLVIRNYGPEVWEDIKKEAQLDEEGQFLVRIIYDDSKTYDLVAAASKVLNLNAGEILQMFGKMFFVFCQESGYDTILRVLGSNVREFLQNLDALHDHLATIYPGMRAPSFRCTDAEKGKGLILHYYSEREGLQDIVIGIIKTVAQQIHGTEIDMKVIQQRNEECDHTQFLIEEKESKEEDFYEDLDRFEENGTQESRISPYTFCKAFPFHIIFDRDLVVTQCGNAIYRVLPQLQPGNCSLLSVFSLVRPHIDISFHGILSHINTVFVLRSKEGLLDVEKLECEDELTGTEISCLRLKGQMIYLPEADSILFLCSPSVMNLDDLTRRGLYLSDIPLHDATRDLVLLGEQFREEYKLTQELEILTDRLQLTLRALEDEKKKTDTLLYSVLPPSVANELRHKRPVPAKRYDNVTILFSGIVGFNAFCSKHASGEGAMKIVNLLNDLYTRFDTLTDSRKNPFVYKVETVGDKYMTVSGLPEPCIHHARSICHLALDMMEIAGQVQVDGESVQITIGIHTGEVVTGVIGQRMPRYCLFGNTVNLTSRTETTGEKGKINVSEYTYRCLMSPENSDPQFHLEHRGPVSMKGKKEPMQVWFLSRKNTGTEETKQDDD
How it was run: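 CHO-K1 cells stably expressing human sGC α1/β1 (4×10^5/mL, 0.5 mM IBMX) were treated with compounds (2.5% DMSO final) ± 1 μM DETA-NO for 1 hr at 37° C. Intracellular cGMP measured by HTRF. Activity expressed as % of Compound A maximal cGMP; IP and maximum fold induction from 4P fit.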

SMILES	half-life [1]	EC50 [2]
C[C@@]1(c2ccc(F)cc2)C(=O)Nc2nc(-c3cn4ncnc4c(CCC(F)(F)C(F)(F)F)n3)nc(N)c21 [Example 1A, (S)-4-Amino-5-(4-fluorophenyl)-5-methyl-2-(8-(3,3,4,4,4-pentafluorobutyl)-[1,2,4]triazolo[1,5-a]pyrazin-6-yl)-5H-pyrrolo[2,3-d]pyrimidin-6(7H)-one]	3.35 h	187 nM
CC1(c2ccc(F)cn2)C(=O)Nc2nc(-c3cn4ncnc4c(CCCC(F)(F)F)n3)ncc21 (stereo not drawn) [Example 176B]		526 nM
NC(=O)c1nc(-c2cn3ncnc3c(CCCC(F)(F)F)n2)nc2c1C(c1ccc(C(F)(F)F)cn1)(C1CC1)C(=O)N2 (stereo not drawn) [Example 178A]		199 nM
CC1(c2ccc(C(F)F)cn2)C(=O)Nc2nc(-c3cn4ncnc4c(CCCC(F)(F)F)n3)nc(O)c21 (stereo not drawn) [Example 181A, 4-hydroxy-5-(5-(difluoromethyl)pyridin-2-yl)-5-methyl-2-(8-(4,4,4-trifluorobutyl)-[1,2,4]triazolo[1,5-a]pyrazin-6-yl)-5H-pyrrolo[2,3-d]pyrimidin-6(7H)-one]		749 nM
CC1(c2ccc(F)cc2)C(=O)Nc2nc(-c3cn4ccnc4c(CCC(F)(F)C(F)(F)F)n3)nc(N)c21 (stereo not drawn) [reference compound]	1.04 h	

Continued by falling EC50 [2], values first:

half-life [1]	EC50 [2]	SMILES
	128 nM	C[C@@]1(c2ccc(F)cc2)C(=O)Nc2nc(-c3cn4ncnc4c(CCC(F)(F)C(F)(F)F)n3)nc(C(N)=O)c21 [Example 177A, 5-(4-Fluorophenyl)-5-methyl-6-oxo-2-(8-(3,3,4,4,4-pentafluorobutyl)-[1,2,4]triazolo[1,5-a]pyrazin-6-yl)-6,7-dihydro-5H-pyrrolo[2,3-d]pyrimidine-4-carboxamide]
2.97 h	117 nM	CC1(c2ccc(F)cn2)C(=O)Nc2nc(-c3cn4ncnc4c(CCC(F)(F)C(F)(F)F)n3)nc(N)c21 (stereo not drawn) [Example 4B, 4-amino-5-(5-fluoropyridin-2-yl)-5-methyl-2-(8-(3,3,4,4,4-pentafluorobutyl)-[1,2,4]triazolo[1,5-a]pyrazin-6-yl)-5H-pyrrolo[2,3-d]pyrimidin-6(7H)-one]
3.94 h	111 nM	Nc1nc(-c2cn3ncnc3c(CCCC(F)(F)F)n2)nc2c1C(c1ccc(C(F)F)cn1)(C1CC1)C(=O)N2 (racemic) [Example 44B, 4-amino-5-cyclopropyl-5-(5-(difluoromethyl)pyridin-2-yl)-2-(8-(4,4,4-trifluorobutyl)-[1,2,4]triazolo[1,5-a]pyrazin-6-yl)-5H-pyrrolo[2,3-d]pyrimidin-6(7H)-one]
	90.2 nM	CC1(c2ccc(C(F)(F)F)cn2)C(=O)Nc2nc(-c3cn4ncnc4c(CCCC(F)(F)F)n3)nc(C(N)=O)c21 (stereo not drawn) [Example 179B, 5-methyl-6-oxo-2-(8-(4,4,4-trifluorobutyl)-[1,2,4]triazolo[1,5-a]pyrazin-6-yl)-5-(5-(trifluoromethyl)pyridin-2-yl)-6,7-dihydro-5H-pyrrolo[2,3-d] pyrimidine-4-carboxamide]
